Entries after “also recorded” stand apart in the source; their conditions may differ. Read-outs that look alike come from different tables or passages of the source.
Key:
[1] = plasma and brain concentration in mice after intraperitoneal injection (LC/MS/MS); type: in vivo, mouse; settings: mouse, at 0.5 mg/kg, analogous calculation
Protocol: Adult male C57BL/6J; retired breeders, aged between 7-9 months (Jackson Laboratory, Bar Harbor, Me., USA), singly housed.
Just prior to the harvesting of tissues, mice were anesthetized with avertin. Samples of whole brain or plasma were collected from three animals per time point at 15 minutes, 30 minutes, 60 minutes, 120 minutes, and 240 minutes after injection. Blood samples were collected by retro-orbital bleeding. Plasma was prepared and red cells were removed by centrifugation. The mice were perfused with saline to remove contaminating blood. The brains were removed and rapidly frozen in liquid nitrogen for subsequent analysis. The plasma and brain samples were stored at −80° C. or on dry ice and the concentration of compound was determined by LC/MS/MS analysis as follows:
Whole brain tissue was homogenized using a Mini-Beaddeater-8™ (BioSpec Products, Bartlesville, Okla.). Plasma or homogenized brain samples were precipitated with acetonitrile and filtered in 96-well format using Captiva 0.20 micron filtration plates (Varian Corp, Lake Forest, Calif.). Filtrates were evaporated under nitrogen to dryness at 50° C. and were then reconstituted for LC-MS analysis.
Quantitative measurements for inhibitory compound in plasma and brain samples were obtained using a Thermo Ultra triple quadrupole mass spectrometer (Thermo Fisher Scientific, San Jose, Calif.), utilizing electrospray ionization in the multiple reaction monitoring mode of data acquisition. Sample extracts were injected onto a 2.1×30 mm packed Xterra C18-MS high pressure liquid chromatography (HPLC) column (Waters Corp, Milford, Mass.). The mobile phase eluting the compound from the HPLC column was applied using a Thermo Surveyor MS Plus HPLC quaternary pumping system (Thermo Fisher Scientific, San Jose, Calif.) and a HTC PAL autoinjector (LEAP Technologies, Chapel Hill, N.C.).

PDE7A = PDE7A (Homo sapiens (Human), UniProt Q13946); experiment: PDE7 phosphodiesterase scintillation proximity assay (SPA), PDE7A; type: biochemical
MPTP-treated mice = experiment: inked paw stride length in the MPTP mouse model of Parkinson's disease, panel of PDE7 inhibitors (Example 7); type: in vivo; settings: 20 minutes after dose
Protocol: Adult male C57BL/6J; retired breeders, aged between 7-9 months Charles River Laboratories, Wilmington, Mass.), singly housed. Three groups of 35 mice were tested in series one week apart.
Mice received 2 subcutaneous injections of methylphenyltetrahydropyridine (“MPTP”) at a dose of 15 mg/kg (free base) with a 10-12 hour interval between injections. Control mice (sham lesion groups) were administered saline instead of MPTP.
Prior to injection with MPTP or saline, animals were pre-trained to walk across a clean sheet of paper into their home cage without stopping. For assessment of stride length, animals had their forepaws placed in black ink and the length of forepaw steps during normal walking (in a straight line only) was measured. The animals were immediately put back into their home cage upon completion of the task. Stride length was determined by measuring the distance between each step on the same side of the body, measuring from the middle toe of the first step to the heel of the second step. An average of at least four clear steps was calculated. The schedule for this experiment was as follows:
Because of the wide variation in aqueous solubility among these compounds, a number of different formulations were required. L-dopa was administered in 100 μl of phosphate buffered saline. For animals treated with L-dopa, the dopa decarboxylase inhibitor benserazide (100 μL of a 12.5 mg/kg solution) was administered 15 minutes prior to treatment with L-dopa in order to minimize the destruction of L-dopa in the peripheral blood. […] Therefore, the treatment effects observed are due solely to the PDE7 inhibitory compounds themselves. […] This phenomenon of “overshoot” has also been observed with L-dopa in MPTP-treated mice in which lower doses ameliorate hypoactivity while higher doses induce dyskinesias or uncontrolled movements (Lundblad M. et al., Exp Neurol.194(1):66-75 (2005); Pearce R. K. et al., Mov Disord. 10(6):731-40 (1995); Fredriksson, A. et al, Pharmacol-Toxicol. 67(4): 295-301 (1990)).
Retired breeder male mice were treated with either saline or 2×15 mg/kg MPTP to induce a Parkinsonian state (neurochemical loss of dopamine with corresponding behavioral deficits). On day one baseline stride length was measured and then mice were treated with either MPTP or with saline as a control. On day eight stride length was measured again, and the control value for stride length was derived from the stride length of saline-treated animals. The animals were then divided randomly into treatment groups. Compound OM955 (compound 3) was tested at 0.1 mg/kg, at 0.5 mg/kg, and at 0.1 mg/kg in combination with 1 mg/kg L-dopa.

PDE7B = PDE7B (Homo sapiens (Human), UniProt Q9NP56); experiment: PDE7 phosphodiesterase scintillation proximity assay (SPA), PDE7B; type: biochemical
Tyrosine Hydroxylase [2] = target: T1, Tyrosine Hydroxylase (Rattus norvegicus (Rat), UniProt P04177); experiment: Tyrosine Hydroxylase enzyme assay; type: biochemical; settings: read-out: Positive Control Observed IC50, Tyrosine Hydroxylase
Protocol: Tyrosine Hydroxylase was assayed as described in Roskoski, R., Jr., et al., J. Biochem 218:363-370 (1993) with the following modifications. Tyrosine Hydroxylase was isolated from Wistar rat brain. The substrate was 100 μM L-[3,5-^3H]Tyrosine+L-Tyrosine. The vehicle control was 1% DMSO. Compound OM69 was tested at 10 μM in incubation buffer (125 mM MES, pH 6.0, 0.5 mg/ml Catalase, 12.5 mM DTT, 0.5 mM (6R)-5,6,7,8-Tetrahydrobiopterin). The reaction was pre-incubated for 15 minutes at 37° C. Tyrosine Hydroxylase enzyme was added, and the reaction was incubated for 20 minutes at 37° C. [^3H]-H20 was quantitated.

Tyrosine Hydroxylase [3] = target: T1, Tyrosine Hydroxylase; settings: historical value; read-out: Positive Control Expected IC50 (historical), Tyrosine Hydroxylase; cited from earlier work
[4] = target: T2, Catechol-O-Methyltransferase (COMT) (Sus scrofa, UniProt D3K5L3); experiment: biochemical; type: biochemical, pig
[5] = target: T2, Catechol-O-Methyltransferase (COMT); settings: read-out: Positive Control Expected IC50 (historical), COMT; historical value; cited from earlier work

Chain of PDE7B (Q9NP56 107-450 limits assumed): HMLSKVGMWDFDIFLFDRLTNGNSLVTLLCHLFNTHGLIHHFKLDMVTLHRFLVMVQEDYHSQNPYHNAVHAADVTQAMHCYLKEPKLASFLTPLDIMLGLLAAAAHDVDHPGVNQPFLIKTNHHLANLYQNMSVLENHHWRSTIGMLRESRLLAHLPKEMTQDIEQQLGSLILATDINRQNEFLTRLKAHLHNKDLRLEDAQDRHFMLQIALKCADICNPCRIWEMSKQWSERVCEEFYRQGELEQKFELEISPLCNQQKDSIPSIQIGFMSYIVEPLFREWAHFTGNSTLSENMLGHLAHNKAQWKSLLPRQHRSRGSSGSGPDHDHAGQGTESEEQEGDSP
T2 sequence (D3K5L3 1-270): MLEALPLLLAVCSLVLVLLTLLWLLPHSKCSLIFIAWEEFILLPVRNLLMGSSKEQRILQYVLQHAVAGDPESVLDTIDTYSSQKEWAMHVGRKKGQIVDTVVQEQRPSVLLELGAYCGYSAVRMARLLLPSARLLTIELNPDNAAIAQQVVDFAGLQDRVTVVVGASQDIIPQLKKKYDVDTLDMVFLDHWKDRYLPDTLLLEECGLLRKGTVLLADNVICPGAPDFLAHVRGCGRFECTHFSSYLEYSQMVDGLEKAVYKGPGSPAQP
Chain of PDE7A (Q13946 whole entry, looked up): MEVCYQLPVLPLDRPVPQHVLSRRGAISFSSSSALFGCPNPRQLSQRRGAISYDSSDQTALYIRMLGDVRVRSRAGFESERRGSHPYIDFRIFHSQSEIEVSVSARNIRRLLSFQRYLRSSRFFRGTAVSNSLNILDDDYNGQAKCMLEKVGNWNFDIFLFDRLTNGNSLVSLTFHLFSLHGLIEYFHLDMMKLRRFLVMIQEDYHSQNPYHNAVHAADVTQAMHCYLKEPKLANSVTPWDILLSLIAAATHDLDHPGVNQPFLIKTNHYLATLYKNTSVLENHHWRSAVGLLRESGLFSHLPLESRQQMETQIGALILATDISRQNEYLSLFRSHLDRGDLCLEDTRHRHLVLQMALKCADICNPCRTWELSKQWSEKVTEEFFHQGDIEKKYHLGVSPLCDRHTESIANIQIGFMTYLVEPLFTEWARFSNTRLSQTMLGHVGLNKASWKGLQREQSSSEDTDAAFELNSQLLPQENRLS
T1 sequence (P04177 whole entry): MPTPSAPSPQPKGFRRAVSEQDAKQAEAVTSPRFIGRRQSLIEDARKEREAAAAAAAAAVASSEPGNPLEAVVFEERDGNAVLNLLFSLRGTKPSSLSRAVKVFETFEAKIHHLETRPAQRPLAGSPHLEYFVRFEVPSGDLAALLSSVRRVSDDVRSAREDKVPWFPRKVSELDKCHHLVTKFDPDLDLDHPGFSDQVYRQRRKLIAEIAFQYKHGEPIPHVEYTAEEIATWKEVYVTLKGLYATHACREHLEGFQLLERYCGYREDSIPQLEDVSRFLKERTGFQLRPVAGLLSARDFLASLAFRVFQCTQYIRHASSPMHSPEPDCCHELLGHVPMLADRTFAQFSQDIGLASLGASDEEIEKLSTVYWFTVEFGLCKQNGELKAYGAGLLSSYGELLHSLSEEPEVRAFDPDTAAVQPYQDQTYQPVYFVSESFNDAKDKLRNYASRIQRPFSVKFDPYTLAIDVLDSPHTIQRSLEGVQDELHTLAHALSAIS

Compound: COc1cc(N)ccc1-c1nc2c(C)nn(C3CCCCC3)c2c(=O)[nH]1 [OM056]
- maximal brain concentration at dose where efficacy was observed [1]: 358 nM
- potency of PDE7A inhibition, in words (PDE7A): high potency
- effect on stride length, in words (MPTP-treated mice; OM056 0.05 mg/kg): statistically significant increase; also recorded: full recovery of baseline stride length
- potency of PDE7B inhibition, in words (PDE7B): high potency
- IC50 (PDE7B; unit inferred): 9.27 nM

Compound: C[C@](N)(Cc1ccc(O)cc1)C(=O)O [α-Methyl-L-P-Tyrosine, reference compound]
- IC50 (Tyrosine Hydroxylase [2]): 20200 nM
- IC50 (Tyrosine Hydroxylase [3]): 20000 nM

Compound: CC(=O)Nc1ccc(-c2nn(C)/c(=N/C3CCCCC3)s2)cc1 [OM956]
- maximal brain concentration at dose where efficacy was observed [1]: 5260 nM
- potency of PDE7A inhibition, in words (PDE7A): moderate potency
- effect on stride length, in words (MPTP-treated mice; OM956 0.5 mg/kg): statistically significant increase; also recorded: full recovery of baseline stride length
- potency of PDE7B inhibition, in words (PDE7B): moderate potency

Compound: O=[N+]([O-])c1cc(O)c(O)c([N+](=O)[O-])c1 [3,5-Dinitrocatechol, reference compound]
- IC50 [4]: 606 nM
- IC50 [5]: 310 nM

Source: patent publication US8637528B2, “Use of PDE7 inhibitors for the treatment of movement disorders” (Omeros Corporation, priority 2007, dated 2014)
